Assay results taken from paper PMC10470053, “Diverse p120RasGAP interactions with doubly phosphorylated partners EphB4, p190RhoGAP, and Dok1” (The Journal of Biological Chemistry, 2023).
Substitutions are numbered along the chain they refer to. Where “and” joins values, the source holds several entries; their conditions need not be identical. Identical values can stand only once. One block for each molecule: values may come before it. Square brackets hold non-standard residues; d marks the D form. Peptide text beside a SMILES is read from it. pY = N[C@@H](Cc1ccc(OP(=O)(O)O)cc1)C(=O)O

How the values were obtained:
[1] = molecular target: T1, RasGAP^232(mut) (R398E/K400E, C-SH2 mutant) (Homo sapiens, UniProt P20936, C236S/C261S/C372S/C402S/K400E/R398E); test: Isothermal titration calorimetry, C-SH2 mutant RasGAP^232(mut); format: binding
T1 construct: (residues 174–444, termed RasGAP^232); hexahistidine (TEV-cleavable) (N, cleaved yes); made in house; host or cells: E. coli Rosetta (DE3)
T1 sequence (P20936 174-444 C236S/C261S/C372S/R398E/K400E/C402S): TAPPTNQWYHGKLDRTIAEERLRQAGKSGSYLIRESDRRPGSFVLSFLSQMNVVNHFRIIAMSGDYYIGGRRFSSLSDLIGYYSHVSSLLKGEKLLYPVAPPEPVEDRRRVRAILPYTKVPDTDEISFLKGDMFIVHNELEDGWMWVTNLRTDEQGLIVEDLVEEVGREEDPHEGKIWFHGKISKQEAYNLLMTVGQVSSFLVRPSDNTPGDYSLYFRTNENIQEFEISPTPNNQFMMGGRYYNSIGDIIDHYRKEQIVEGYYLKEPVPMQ
Method: One possibility for the difference in binding affinity of EphB4 compared to the other dually phosphorylated peptides is that only a single SH2 domain engages EphB4 at any time. This is supported by the observation that the Kd of binding, 2 μM, is similar to other reported individual SH2 phosphotyrosine interactions (for examples see ([60])) and the evidence of only one inflection point in the doubly phosphorylated EphB4–binding isotherm (Figs. 2B and S3). To assess this hypothesis, we generated two RasGAP^232 mutants that disrupt the phosphotyrosine-binding sites of either the N- or C-SH2 domains and conducted further ITC experiments. […] For the ‘FLVR-unique” C-terminal SH2, we introduced a double mutation R398E/K400E, to abrogate phosphotyrosine binding guided by our previous work ([52]), termed RasGAP^232(mut) (Fig. 2D). We additionally generated a double mutant of both SH2 domains, RasGAP^2(mut)32(mut), and purified each of these proteins (Fig. S2, B–D). […] We then assessed phosphopeptide binding of the single mutant SH2 domains. […] This is similar to the Kd of 2 ± 0.7 μM observed for titration of this peptide into WT RasGAP^232.
To attempt to parse the specificity of RasGAP for the more N- or C-terminal EphB juxtamembrane phosphotyrosines pY590 and pY596, we assessed the affinity of RasGAP^232(mut) for shorter synthesized EphB4 peptides corresponding to either of the two phosphotyrosines (Fig. 1C). […] Alternatively, the C-terminal SH2 may contribute to a second weaker interaction in a tandem interaction. […] This low-affinity interaction represents a primarily single N-SH2-dominant interaction.
Purified RasGAP^232 protein and solubilized peptides were dialyzed overnight against buffer containing 20 mM Tris pH 8, 250 mM NaCl in Slide-A-Lyzer 3 ml 10 kDa molecular weight cut off cassettes (Spectra-Por) and Micro Float-A-Lyzer 0.1 to 0.2 ml, 0.1 to […] molecular weight cut off devices (Spectra-Por), respectively. Protein and peptide concentrations were determined by A280 measured on a Nanodrop Lite (Thermo Fisher Scientific) instrument using extinction coefficients of 45,840 M^−1 cm^−1 for RasGAP^232 (and mutants), 917 M^−1 cm^−1 for the doubly phosphorylated EphB4 peptide, and 458.5 M^−1 cm^−1 for the singly phosphorylated EphB4 peptides as determined by ([74]). Dok1 peptide concentration was confirmed using Amino Acid Analysis performed at UC Davis Molecular Structure Facility. Samples were centrifuged for 10 min at 4 °C and degassed for 7 min using a Degassing Station (TA Instruments). ITC experiments were performed on a Nano ITC (TA Instruments) by loading protein into the 190 μl sample cell and titrating 20 times with 2.5 μl peptide in the titration syringe. Concentrations for sample cell and syringe for each trial are included in Table S1. The data were analyzed in NanoAnalyze software (TA Instrument) using blank (constant) and independent models (https://www.tainstruments.com/itcrun-dscrun-nanoanalyze-software/).

[2] = molecular target: T2, RasGAP^232 (p120RasGAP N-SH2, SH3 and C-SH2 domains, residues 174-444) (human, UniProt P20936 174-444, C236 | C261 | C372 | C402); test: ITC; protein in the 190 ul sample cell, titrated 20 times with 2.5 ul peptide from the syringe; 20 mM Tris pH 8, 250 mM NaCl; Nano ITC (TA Instruments); independent binding model; conditions: both partners purified
T2 construct: p120RasGAP (RASA1), human, UniProt P20936, residues 174-444 (N-SH2, SH3, C-SH2), with four cysteine to serine mutations; also called WT RasGAP^232; apo RasGAP^232; source: E. coli Rosetta (DE3), purified (Ni-NTA, TEV cleavage, anion exchange, SEC)
T2 sequence (looked up): T1 sequence (P20936 174-444 C236S/C261S/C372S/R398E/K400E/C402S) with E225R, E227K

[3] = molecular target: T3, RasGAP^232(mut) (RasGAP^232 with R398E/K400E in the C-SH2 domain) (human, UniProt P20936 174-444, C236S | C261S | C372S | C402S | R398E | K400E); test: ITC; RasGAP^232 protein (WT or mutant) in the 190 µl sample cell, peptide in the syringe, 20 injections of 2.5 µl; 20 mM Tris pH 8, 250 mM NaCl; Nano ITC (TA Instruments); blank (constant) and independent models; values of single trials, averages and stdev; conditions: both partners purified
T3 construct: p120RasGAP, human, UniProt P20936, residues 174-444; Made by site-directed mutagenesis of RasGAP^232, which holds the four cysteine to serine mutations; also called C-SH2 mutant; source: E. coli Rosetta (DE3), purified (same protocol as the WT counterpart); not shown: His6, N-terminal, cleaved
T3 sequence (looked up): T1 sequence (P20936 174-444 C236S/C261S/C372S/R398E/K400E/C402S)

[4] = molecular target: T4, RasGAP^232(mut) (RasGAP^232 with R398E/K400E in the C-SH2 domain) (human, UniProt P20936 174-444, R398E | K400E | C236 | C261 | C372 | C402); test: ITC; protein in the 190 ul sample cell, titrated 20 times with 2.5 ul peptide from the syringe; 20 mM Tris pH 8, 250 mM NaCl; Nano ITC (TA Instruments); independent binding model; conditions: both partners purified
T4 construct: p120RasGAP (RASA1), human, UniProt P20936, residues 174-444, mutant of RasGAP^232 in the C-SH2 domain; also called C-SH2 mutant; source: E. coli Rosetta (DE3), purified (same protocol as the WT: Ni-NTA, TEV cleavage, anion exchange, SEC)
T4 sequence (looked up): T1 sequence (P20936 174-444 C236S/C261S/C372S/R398E/K400E/C402S)

[5] = ITC, average of trials (Table S1)

B1: doubly phosphorylated Dok1 peptide (residues 291-322, pY296 and pY315) (peptide)
peptide: Ac-SPPAL[pY]AEPLDSLRIAPCPSQDSL[pY]SDPLDST-NH2
SMILES: CC[C@H](C)[C@H](NC(=O)[C@H](CCCNC(=N)N)NC(=O)[C@H](CC(C)C)NC(=O)[C@H](CO)NC(=O)[C@H](CC(=O)O)NC(=O)[C@H](CC(C)C)NC(=O)[C@@H]1CCCN1C(=O)[C@H](CCC(=O)O)NC(=O)[C@H](C)NC(=O)[C@H](Cc1ccc(OP(=O)(O)O)cc1)NC(=O)[C@H](CC(C)C)NC(=O)[C@H](C)NC(=O)[C@@H]1CCCN1C(=O)[C@@H]1CCCN1C(=O)[C@H](CO)NC(C)=O)C(=O)N[C@@H](C)C(=O)N1CCC[C@H]1C(=O)N[C@@H](CS)C(=O)N1CCC[C@H]1C(=O)N[C@@H](CO)C(=O)N[C@@H](CCC(N)=O)C(=O)N[C@@H](CC(=O)O)C(=O)N[C@@H](CO)C(=O)N[C@@H](CC(C)C)C(=O)N[C@@H](Cc1ccc(OP(=O)(O)O)cc1)C(=O)N[C@@H](CO)C(=O)N[C@@H](CC(=O)O)C(=O)N1CCC[C@H]1C(=O)N[C@@H](CC(C)C)C(=O)N[C@@H](CC(=O)O)C(=O)N[C@@H](CO)C(=O)N[C@H](C(N)=O)[C@@H](C)O
notes: Dok1, UniProt Q99704, residues 291-322; also called pYpY Dok1; source: synthetic peptide, bought: GenScript
- Kd [2]: 0.03 ± 0.02 µM
- dH [2]: -18.6 ± 0.717 kcal/mol
- stoichiometry N [2]: 0.8 ± 0.1

B2: singly phosphorylated EphB4 peptide pY590 (peptide)
peptide: Ac-GTKV[pY]IDPFT-NH2
SMILES: CC[C@H](C)[C@H](NC(=O)[C@H](Cc1ccc(OP(=O)(O)O)cc1)NC(=O)[C@@H](NC(=O)[C@H](CCCCN)NC(=O)[C@@H](NC(=O)CNC(C)=O)[C@@H](C)O)C(C)C)C(=O)N[C@@H](CC(=O)O)C(=O)N1CCC[C@H]1C(=O)N[C@@H](Cc1ccccc1)C(=O)N[C@H](C(N)=O)[C@@H](C)O
notes: EphB4, UniProt P54760, residues 586-595; also called pY590 EphB4; source: synthetic peptide, bought: GenScript
- Kd [3]: 24.2 µM and 14.6 µM and 9.7 µM
- stoichiometry N [3]: 0.7 and 0.8

B4: singly phosphorylated EphB4 peptide pY590 (residues 586-595) (peptide)
peptide: Ac-GTKV[pY]IDPFT-NH2
SMILES: CC[C@H](C)[C@H](NC(=O)[C@H](Cc1ccc(OP(=O)(O)O)cc1)NC(=O)[C@@H](NC(=O)[C@H](CCCCN)NC(=O)[C@@H](NC(=O)CNC(C)=O)[C@@H](C)O)C(C)C)C(=O)N[C@@H](CC(=O)O)C(=O)N1CCC[C@H]1C(=O)N[C@@H](Cc1ccccc1)C(=O)N[C@H](C(N)=O)[C@@H](C)O
notes: EphB4 juxtamembrane region, UniProt P54760, residues 586-595; also called pY590 EphB4; source: synthetic peptide, bought: GenScript
- Kd [4]: 16 ± 7 µM
- dH [4]: -3.7 kcal/mol
- stoichiometry N [4]: 0.8 ± 0.1

B5: singly phosphorylated EphB4 peptide pY596 (peptide)
peptide: Ac-DPFT[pY]EDPNE-NH2
SMILES: CC(=O)N[C@@H](CC(=O)O)C(=O)N1CCC[C@H]1C(=O)N[C@@H](Cc1ccccc1)C(=O)N[C@H](C(=O)N[C@@H](Cc1ccc(OP(=O)(O)O)cc1)C(=O)N[C@@H](CCC(=O)O)C(=O)N[C@@H](CC(=O)O)C(=O)N1CCC[C@H]1C(=O)N[C@@H](CC(N)=O)C(=O)N[C@@H](CCC(=O)O)C(N)=O)[C@@H](C)O
notes: EphB4 juxtamembrane region, UniProt P54760; also called pY596 EphB4; source: synthetic peptide, bought: GenScript
- Kd [4]: 21 ± 3 µM
- dH [4]: -5.26 ± 0.956 kcal/mol
- stoichiometry N [4]: 0.6 ± 0.2

Other lines, results leading:

- weaker binding than the doubly phosphorylated EphB4 peptide ([1]; ITC Kd, singly versus doubly phosphorylated EphB4 peptide): about 10 fold
- n ([1]; ITC stoichiometry, mean ± SD of trials): 0.6 ± 0.2
- -T∆S [1, 5]: -1.2 kcal/mol
- Ka [1, 5]: 0.05 µM⁻¹
- ∆G [1, 5]: -6.38 kcal/mol
- ΔH ([1]; ITC, mean ± SD of trials): -5.26 kcal/mol and -5.26 ± 0.96 kcal/mol
- ΔS ([1]; ITC, mean ± SD of trials): 15 J/mol∗K and 15 ± 13 J/mol∗K
- -T∆S ([1]; trial 2, ITC): -1.58 kcal/mol
- ∆G ([1]; trial 2, ITC): -6.36 kcal/mol
- ∆H ([1]; trial 2, ITC): -4.8 kcal/mol
- ∆S ([1]; trial 2, ITC): 22.0 J/mol*K
- -T∆S ([1]; trial 3, ITC): -0.048 kcal/mol
- Ka ([1]; trial 3, ITC): 0.05 µM⁻¹
- ∆G ([1]; trial 3, ITC): -6.48 kcal/mol
- ∆H ([1]; trial 3, ITC): -6.43 kcal/mol
- ∆S ([1]; trial 3, ITC): 0.8 J/mol*K
Molecule: CC(=O)N[C@@H](CC(=O)O)C(=O)N1CCC[C@H]1C(=O)N[C@@H](Cc1ccccc1)C(=O)N[C@H](C(=O)N[C@@H](Cc1ccc(OP(=O)(O)O)cc1)C(=O)N[C@@H](CCC(=O)O)C(=O)N[C@@H](CC(=O)O)C(=O)N1CCC[C@H]1C(=O)N[C@@H](CC(N)=O)C(=O)N[C@@H](CCC(=O)O)C(N)=O)[C@@H](C)O [pY596 EphB4] (Ac-DPFT[pY]EDPNE-NH2)

- Ka [3]: 40000 M⁻¹ and 50000 M⁻¹
- Kd [3]: 24 µM and 22 µM and 18 µM
- stoichiometry N [3]: 0.7 and 0.8 and 0.4
B3: singly phosphorylated EphB4 peptide pY596 (peptide)
peptide: Ac-DPFT[pY]EDPNE-NH2
SMILES: CC(=O)N[C@@H](CC(=O)O)C(=O)N1CCC[C@H]1C(=O)N[C@@H](Cc1ccccc1)C(=O)N[C@H](C(=O)N[C@@H](Cc1ccc(OP(=O)(O)O)cc1)C(=O)N[C@@H](CCC(=O)O)C(=O)N[C@@H](CC(=O)O)C(=O)N1CCC[C@H]1C(=O)N[C@@H](CC(N)=O)C(=O)N[C@@H](CCC(=O)O)C(N)=O)[C@@H](C)O
notes: EphB4, UniProt P54760; also called pY596 EphB4; source: synthetic peptide, bought: GenScript
